The text below walks through data of the NIST ThermoML archive (doi:10.1021/je700741x).

For this series the following is noted: 298.15 K; 101.33 kPa; Liquid.

SMILES strings stand for the structures. ± gives the expanded uncertainty stated by the source.

Broadly, the mass density is the mass of a sample divided by its volume. As to `OCC(F)(F)F` [2,2,2-trifluoroethanol], the mass density was determined as 1382.4 ± 1.6 kg/m3.

Turning to `C1CCCCC1` [cyclohexane], the mass density was 774 ± 1 kg/m3.

`CCO` [ethanol]: the mass density came out at 785.2 ± 1 kg/m3.

Consider `CC(C)O` [propan-2-ol], for which the mass density is 781.4 ± 1.1 kg/m3.
